{
  "source": "ChEMBL document CHEMBL5046253",
  "about": "“Synthesis and bioevaluation of diaryl urea derivatives as potential antitumor agents for the treatment of human colorectal cancer” (Eur J Med Chem, 2022)",
  "key": {"HCT-116 [1]": {"test_system": "HCT-116", "experiment": "Induction of cell cycle arrest in human HCT-116 cells assessed as increase in accumulation at G2/M phase at 1.5 to 6 uM after 24 hrs by propidium iodide staining based flow cytometric analysis (reference value: 19.1 %)", "format": "functional", "conditions": "dose 1.5-6 µM"}, "[2]": {"target": "Phosphatidylinositol 4,5-bisphosphate 3-kinase catalytic subunit beta isoform (Homo sapiens, UniProt P42338)", "sequence (P42338 whole entry, canonical isoform)": "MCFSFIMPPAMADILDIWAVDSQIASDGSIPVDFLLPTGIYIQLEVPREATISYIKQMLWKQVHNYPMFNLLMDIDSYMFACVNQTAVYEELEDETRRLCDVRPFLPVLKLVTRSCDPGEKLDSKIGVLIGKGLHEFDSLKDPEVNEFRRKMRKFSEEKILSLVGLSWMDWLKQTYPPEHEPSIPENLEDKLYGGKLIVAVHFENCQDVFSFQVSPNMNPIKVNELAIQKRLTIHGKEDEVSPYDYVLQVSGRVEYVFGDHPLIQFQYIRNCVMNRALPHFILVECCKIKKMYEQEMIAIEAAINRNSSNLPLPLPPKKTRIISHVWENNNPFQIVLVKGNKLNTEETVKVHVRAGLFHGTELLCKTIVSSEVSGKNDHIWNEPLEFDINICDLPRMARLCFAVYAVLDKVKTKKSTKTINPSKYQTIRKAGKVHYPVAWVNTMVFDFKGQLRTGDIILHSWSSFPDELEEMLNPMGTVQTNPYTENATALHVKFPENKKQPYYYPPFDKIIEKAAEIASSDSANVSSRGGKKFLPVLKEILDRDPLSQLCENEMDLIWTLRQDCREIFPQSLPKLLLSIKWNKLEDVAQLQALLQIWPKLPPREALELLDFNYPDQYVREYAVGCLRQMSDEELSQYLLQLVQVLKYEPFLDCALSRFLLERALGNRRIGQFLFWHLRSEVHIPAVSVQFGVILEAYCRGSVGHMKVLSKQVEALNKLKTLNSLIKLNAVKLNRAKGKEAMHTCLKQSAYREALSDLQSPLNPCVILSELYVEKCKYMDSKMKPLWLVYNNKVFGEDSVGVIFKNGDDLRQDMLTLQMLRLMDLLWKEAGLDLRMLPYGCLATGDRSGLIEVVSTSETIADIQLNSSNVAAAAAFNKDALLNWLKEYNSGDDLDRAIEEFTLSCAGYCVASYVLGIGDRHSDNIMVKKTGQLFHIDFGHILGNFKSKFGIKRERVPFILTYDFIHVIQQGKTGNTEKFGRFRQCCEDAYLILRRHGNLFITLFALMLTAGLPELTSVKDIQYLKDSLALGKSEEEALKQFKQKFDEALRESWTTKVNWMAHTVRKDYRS", "experiment": "Inhibition of PI3Kbeta (unknown origin) using PIP2 as substrate in presence of ATP incubated for 60 mins by ADP-glo based luminescence assay"}, "HCT-116 [3]": {"test_system": "HCT-116", "experiment": "Inhibition of AKT phosphorylation at S473 residue in human HCT-116 cells at 10 uM after 24 hrs by Western blot analysis", "format": "cell-based"}, "HCT-116 [4]": {"test_system": "HCT-116", "experiment": "Induction of apoptosis in human HCT-116 cells assessed as early apoptotic cells at 10 uM incubated for 24 hrs by annexin V FITC/propidium iodide staining based flow cytometry (reference value: 11.1 %)", "format": "functional"}, "HCT-116 [5]": {"test_system": "HCT-116", "experiment": "Induction of apoptosis in human HCT-116 cells assessed as late apoptotic cells at 10 uM incubated for 24 hrs by annexin V FITC/propidium iodide staining based flow cytometry (reference value: 6.8 %)", "format": "functional"}, "Kidney": {"test_system": "Kidney", "experiment": "Toxicity in BALB/c mouse assessed as effect on kidney by H and E staining based histological analysis", "format": "tissue-based", "conditions": "in vivo"}, "[6]": {"target": "Voltage-gated inwardly rectifying potassium channel KCNH2 (Homo sapiens, UniProt Q12809)", "sequence (Q12809 whole entry)": "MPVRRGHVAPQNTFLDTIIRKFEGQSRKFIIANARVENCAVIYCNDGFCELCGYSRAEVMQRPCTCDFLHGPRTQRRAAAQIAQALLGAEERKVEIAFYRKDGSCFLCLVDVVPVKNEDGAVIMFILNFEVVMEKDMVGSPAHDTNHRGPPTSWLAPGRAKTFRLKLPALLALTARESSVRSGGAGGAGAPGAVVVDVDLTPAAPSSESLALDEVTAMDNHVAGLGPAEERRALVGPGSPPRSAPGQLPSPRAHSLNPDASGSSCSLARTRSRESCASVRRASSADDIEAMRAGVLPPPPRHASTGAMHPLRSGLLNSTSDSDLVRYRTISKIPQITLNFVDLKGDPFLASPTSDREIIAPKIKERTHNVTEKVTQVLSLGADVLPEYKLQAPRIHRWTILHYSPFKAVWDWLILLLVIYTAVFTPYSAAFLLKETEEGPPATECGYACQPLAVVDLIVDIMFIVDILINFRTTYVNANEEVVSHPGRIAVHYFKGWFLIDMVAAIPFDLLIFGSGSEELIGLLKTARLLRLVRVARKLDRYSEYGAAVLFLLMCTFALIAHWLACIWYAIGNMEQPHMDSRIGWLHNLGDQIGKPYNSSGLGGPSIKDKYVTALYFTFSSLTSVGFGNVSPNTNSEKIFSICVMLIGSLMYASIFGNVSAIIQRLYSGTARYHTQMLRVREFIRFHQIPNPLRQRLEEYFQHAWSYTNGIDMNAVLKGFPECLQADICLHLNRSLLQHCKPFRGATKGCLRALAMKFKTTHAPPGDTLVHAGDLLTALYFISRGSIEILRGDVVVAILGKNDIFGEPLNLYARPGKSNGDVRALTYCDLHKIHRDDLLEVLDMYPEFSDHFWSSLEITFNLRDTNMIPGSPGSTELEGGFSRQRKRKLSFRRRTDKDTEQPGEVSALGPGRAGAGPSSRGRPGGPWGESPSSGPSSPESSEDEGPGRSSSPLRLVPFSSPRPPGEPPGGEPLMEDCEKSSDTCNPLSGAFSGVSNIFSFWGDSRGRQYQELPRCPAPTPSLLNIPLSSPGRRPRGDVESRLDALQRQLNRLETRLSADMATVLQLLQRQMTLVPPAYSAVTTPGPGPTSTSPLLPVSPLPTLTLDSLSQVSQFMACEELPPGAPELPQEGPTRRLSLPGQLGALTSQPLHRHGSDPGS", "experiment": "Inhibition of human ERG transfected in CHO cells by automated patch method", "format": "toxicity, cell-based"}, "[7]": {"experiment": "Tmax in Sprague-Dawley rat at 20 mg/kg, iv by LC-MS/MS analysis", "format": "ADME, organism-based", "conditions": "in vivo"}, "HCT-116 [8]": {"test_system": "HCT-116", "experiment": "Inhibition of cell migration in human HCT-116 cells at 3 uM measured after 24 hrs by wound healing assay (reference value: 31.16 %)", "format": "functional"}, "HeLa": {"test_system": "HeLa", "experiment": "Antiproliferative activity against human HeLa cells assessed as reduction in cell viability incubated for 48 hrs by MTT assay", "format": "functional, cell-based"}, "HCT-116 [9]": {"test_system": "HCT-116", "experiment": "Induction of apoptosis in human HCT-116 cells assessed as early apoptotic cells at 5 uM incubated for 24 hrs by annexin V FITC/propidium iodide staining based flow cytometry (reference value: 11.1 %)", "format": "functional"}, "[10]": {"experiment": "Stability of the compound in simulated gastrointestinal fluid", "format": "ADME"}, "[11]": {"target": "T1, Phosphatidylinositol 4,5-bisphosphate 3-kinase catalytic subunit delta isoform (Homo sapiens, UniProt O00329)", "T1 sequence (O00329 whole entry)": "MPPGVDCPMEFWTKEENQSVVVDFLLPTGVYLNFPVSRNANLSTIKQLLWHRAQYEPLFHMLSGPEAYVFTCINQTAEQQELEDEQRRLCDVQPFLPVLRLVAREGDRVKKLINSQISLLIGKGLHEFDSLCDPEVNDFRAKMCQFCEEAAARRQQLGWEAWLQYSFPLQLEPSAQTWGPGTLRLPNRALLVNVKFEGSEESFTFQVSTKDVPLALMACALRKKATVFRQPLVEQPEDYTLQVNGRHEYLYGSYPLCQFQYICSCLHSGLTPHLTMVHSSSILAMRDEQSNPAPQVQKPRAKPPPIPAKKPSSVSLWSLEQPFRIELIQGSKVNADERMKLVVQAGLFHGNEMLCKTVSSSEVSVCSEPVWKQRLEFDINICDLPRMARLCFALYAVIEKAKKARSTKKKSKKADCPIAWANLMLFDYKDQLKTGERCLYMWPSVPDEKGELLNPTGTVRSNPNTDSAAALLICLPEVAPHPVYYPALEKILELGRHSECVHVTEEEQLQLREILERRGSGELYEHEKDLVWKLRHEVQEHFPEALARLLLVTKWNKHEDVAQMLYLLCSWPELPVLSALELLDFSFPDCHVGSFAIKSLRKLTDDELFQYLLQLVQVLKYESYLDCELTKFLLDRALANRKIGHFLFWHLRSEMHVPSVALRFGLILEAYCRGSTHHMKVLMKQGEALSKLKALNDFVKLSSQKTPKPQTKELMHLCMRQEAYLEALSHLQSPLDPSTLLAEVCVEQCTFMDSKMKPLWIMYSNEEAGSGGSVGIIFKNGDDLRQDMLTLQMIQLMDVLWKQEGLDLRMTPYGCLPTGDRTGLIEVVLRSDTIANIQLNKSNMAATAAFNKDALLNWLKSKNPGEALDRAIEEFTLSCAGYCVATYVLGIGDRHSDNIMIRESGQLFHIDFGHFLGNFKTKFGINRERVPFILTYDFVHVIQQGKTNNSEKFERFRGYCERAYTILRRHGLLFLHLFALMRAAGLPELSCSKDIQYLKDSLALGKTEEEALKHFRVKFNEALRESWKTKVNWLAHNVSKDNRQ", "experiment": "Inhibition of PI3Kdelta (unknown origin) using PIP2 as substrate in presence of ATP incubated for 60 mins by ADP-glo based luminescence assay"}, "HCT-116 [12]": {"test_system": "HCT-116", "experiment": "Induction of apoptosis in human HCT-116 cells assessed as viable cells at 2.5 uM incubated for 24 hrs by annexin V FITC/propidium iodide staining based flow cytometry (reference value: 81.2 %)", "format": "functional", "conditions": "read-out: Activity"}, "BaF3": {"test_system": "BaF3", "experiment": "Antiproliferative activity against mouse BaF3 cells harboring EGFR L858R/T790M/C797S mutant assessed as reduction in cell viability incubated for 72 hrs by celltiter-glo assay", "format": "toxicity, cell-based", "conditions": "BaF3, 72 h"}, "[13]": {"experiment": "AUC (0 to 72 hrs) in Sprague-Dawley rat at 20 mg/kg, iv by LC-MS/MS analysis", "format": "ADME, organism-based", "design": "time < 72 hr, route intravenous, dose 20 mg/kg", "conditions": "in vivo"}, "Cytochrome P450 3A4": {"target": "Cytochrome P450 3A4 (Homo sapiens, UniProt P08684)", "sequence (P08684 whole entry)": "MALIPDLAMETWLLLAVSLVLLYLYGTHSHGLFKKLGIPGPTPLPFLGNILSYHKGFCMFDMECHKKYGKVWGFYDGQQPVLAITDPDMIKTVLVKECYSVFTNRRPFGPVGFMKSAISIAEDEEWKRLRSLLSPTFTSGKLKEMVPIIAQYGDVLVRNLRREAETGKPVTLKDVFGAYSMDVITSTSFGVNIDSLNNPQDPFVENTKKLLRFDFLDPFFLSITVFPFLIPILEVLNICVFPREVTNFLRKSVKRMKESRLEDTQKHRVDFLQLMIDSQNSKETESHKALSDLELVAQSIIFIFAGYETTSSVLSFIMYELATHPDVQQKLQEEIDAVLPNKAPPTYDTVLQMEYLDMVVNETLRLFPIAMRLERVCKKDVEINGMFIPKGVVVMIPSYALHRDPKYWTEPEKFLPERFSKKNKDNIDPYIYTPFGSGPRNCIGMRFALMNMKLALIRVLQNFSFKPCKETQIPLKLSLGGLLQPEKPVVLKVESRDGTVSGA", "experiment": "Inhibition of CYP3A4 (unknown origin)", "format": "ADME"}, "Liver": {"test_system": "Liver", "experiment": "Toxicity in BALB/c mouse assessed as effect on liver by H and E staining based histological analysis", "format": "tissue-based", "conditions": "in vivo"}, "NCI-H1975": {"test_system": "NCI-H1975", "experiment": "Antiproliferative activity against human NCI-H1975 cells harboring EGFR L858R/T790M double mutant assessed as reduction in cell viability incubated for 72 hrs by celltiter-glo assay", "format": "functional, cell-based", "conditions": "NCI-H1975, 72 h"}, "Cytochrome P450 2D6": {"target": "Cytochrome P450 2D6 (Homo sapiens, UniProt P10635)", "sequence (P10635 whole entry)": "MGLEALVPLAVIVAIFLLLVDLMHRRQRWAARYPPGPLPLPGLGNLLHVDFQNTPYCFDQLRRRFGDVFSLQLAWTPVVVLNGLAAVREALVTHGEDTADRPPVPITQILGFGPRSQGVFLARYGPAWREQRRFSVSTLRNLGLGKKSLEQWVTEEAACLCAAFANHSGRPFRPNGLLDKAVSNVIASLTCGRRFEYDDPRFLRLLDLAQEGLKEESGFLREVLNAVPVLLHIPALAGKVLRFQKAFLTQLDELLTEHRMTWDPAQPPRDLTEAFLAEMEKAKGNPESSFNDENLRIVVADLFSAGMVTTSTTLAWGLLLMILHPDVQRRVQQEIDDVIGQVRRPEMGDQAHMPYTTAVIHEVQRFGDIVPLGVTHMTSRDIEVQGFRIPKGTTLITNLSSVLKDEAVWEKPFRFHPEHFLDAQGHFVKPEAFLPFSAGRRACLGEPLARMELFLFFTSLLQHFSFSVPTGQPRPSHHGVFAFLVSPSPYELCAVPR", "experiment": "Inhibition of CYP2D6 (unknown origin)", "format": "ADME"}, "[14]": {"experiment": "Half life in Sprague-Dawley rat at 20 mg/kg, iv by LC-MS/MS analysis", "format": "ADME, organism-based", "conditions": "in vivo"}, "HCT-116 [15]": {"test_system": "HCT-116", "experiment": "Antitumor activity against human HCT-116 cells xenografted in BALB/c nude mouse assessed as tumor growth inhibition at 20 mg/kg, iv administered for 19 days", "format": "functional", "conditions": "HCT-116, iv, 456 h, time 19 day, read-out: TGI"}, "[16]": {"target": "Phosphatidylinositol 4,5-bisphosphate 3-kinase catalytic subunit alpha isoform (Homo sapiens, UniProt P42336)", "sequence (P42336 whole entry, canonical isoform)": "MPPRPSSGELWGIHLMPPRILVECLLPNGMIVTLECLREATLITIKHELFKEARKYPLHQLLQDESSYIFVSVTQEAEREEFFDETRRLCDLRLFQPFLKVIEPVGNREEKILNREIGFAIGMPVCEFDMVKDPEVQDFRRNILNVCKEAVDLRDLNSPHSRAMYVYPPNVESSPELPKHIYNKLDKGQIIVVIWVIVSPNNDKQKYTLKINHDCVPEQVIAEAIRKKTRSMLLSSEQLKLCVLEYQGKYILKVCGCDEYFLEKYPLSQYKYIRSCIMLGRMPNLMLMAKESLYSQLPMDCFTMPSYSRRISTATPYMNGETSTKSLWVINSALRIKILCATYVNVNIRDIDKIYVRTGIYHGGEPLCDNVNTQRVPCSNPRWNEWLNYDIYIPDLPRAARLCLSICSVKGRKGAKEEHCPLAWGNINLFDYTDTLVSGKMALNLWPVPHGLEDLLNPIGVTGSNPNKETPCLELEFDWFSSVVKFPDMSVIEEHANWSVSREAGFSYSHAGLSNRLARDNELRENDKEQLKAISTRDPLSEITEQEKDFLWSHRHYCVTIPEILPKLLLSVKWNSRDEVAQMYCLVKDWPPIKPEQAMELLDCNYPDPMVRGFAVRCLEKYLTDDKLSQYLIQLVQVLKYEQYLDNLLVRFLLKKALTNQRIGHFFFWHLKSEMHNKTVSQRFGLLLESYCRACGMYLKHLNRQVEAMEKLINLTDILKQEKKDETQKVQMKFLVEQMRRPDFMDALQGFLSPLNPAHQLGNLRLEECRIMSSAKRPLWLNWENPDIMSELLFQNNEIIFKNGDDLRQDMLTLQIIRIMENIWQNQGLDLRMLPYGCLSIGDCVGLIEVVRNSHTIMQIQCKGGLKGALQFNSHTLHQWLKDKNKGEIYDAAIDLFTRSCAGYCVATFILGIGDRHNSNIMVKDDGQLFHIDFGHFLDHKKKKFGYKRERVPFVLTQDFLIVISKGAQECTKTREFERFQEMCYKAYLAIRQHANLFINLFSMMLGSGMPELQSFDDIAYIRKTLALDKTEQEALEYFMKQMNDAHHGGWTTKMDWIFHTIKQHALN", "experiment": "Inhibition of PI3Kalpha (unknown origin) using PIP2 as substrate in presence of ATP incubated for 60 mins by ADP-glo based luminescence assay"}, "Lung": {"test_system": "Lung", "experiment": "Toxicity in BALB/c mouse assessed as effect on lungs by H and E staining based histological analysis", "format": "tissue-based", "conditions": "in vivo"}, "HCT-116 [17]": {"test_system": "HCT-116", "experiment": "Antiproliferative activity against human HCT-116 cells assessed as reduction in cell viability incubated for 48 hrs by MTT assay", "format": "functional, cell-based", "conditions": "HCT-116, 48 h"}, "HCT-116 [18]": {"test_system": "HCT-116", "experiment": "Antitumor activity against human HCT-116 cells xenografted in BALB/c nude mouse assessed as tumor size at 20 mg/kg, iv administered for 19 days (reference value: 1264.1+/-95.7 mm3)", "format": "functional", "conditions": "time 19 day"}},
  "note": "The source made the active and inactive calls. No cut-off for these calls is given here.",
  "data": [
    {"smiles": "NC(=O)[C@@H]1CCCN1C(=O)c1ccc(NC(=O)Nc2ccc(-c3nc(N4CCOCC4)nc(N4CCOCC4)n3)cc2)cc1", "values": [
      {"measurement": "Activity", "setting": "HCT-116 [1]", "value": 22.2, "unit": "%"},
      {"measurement": "IC50", "setting": "[2]", "value": 4.3, "unit": "nM"},
      {"measurement": "inhibition", "setting": "HCT-116 [3]", "value": "Active"},
      {"measurement": "Activity", "setting": "HCT-116 [4]", "value": 24.9, "unit": "%"},
      {"measurement": "Activity", "setting": "HCT-116 [5]", "value": 10.3, "unit": "%"},
      {"measurement": "Activity", "setting": "Kidney", "value": "Non-Toxic"},
      {"measurement": "IC50", "setting": "[6]", "value": "> 30000", "unit": "nM"},
      {"measurement": "Tmax", "setting": "[7]", "value": 1.8, "unit": "min"},
      {"measurement": "inhibition at 3 µM", "setting": "HCT-116 [8]", "value": 9.72, "unit": "%"},
      {"measurement": "IC50", "setting": "HeLa", "value": 13400, "unit": "nM"},
      {"measurement": "Activity", "setting": "HCT-116 [9]", "value": 13.3, "unit": "%"},
      {"measurement": "Stability", "setting": "[10]", "value": "Stable"},
      {"measurement": "IC50", "setting": "[11]", "value": 27.4, "unit": "nM"},
      {"measurement": "viability at 2.5 µM", "setting": "HCT-116 [12]", "value": 58.7, "unit": "%"},
      {"measurement": "IC50", "setting": "BaF3", "value": 217, "unit": "nM"},
      {"measurement": "AUC(0-t) at 72 h", "setting": "[13]", "value": 30000, "unit": "ng·h/mL"},
      {"measurement": "IC50", "setting": "Cytochrome P450 3A4", "value": "> 50000", "unit": "nM"},
      {"measurement": "Activity", "setting": "Liver", "value": "Non-Toxic"},
      {"measurement": "IC50", "setting": "NCI-H1975", "value": 217, "unit": "nM"},
      {"measurement": "IC50", "setting": "Cytochrome P450 2D6", "value": "> 50000", "unit": "nM"},
      {"measurement": "half-life", "setting": "[14]", "value": 19, "unit": "h"},
      {"measurement": "inhibition in vivo at 20 mg/kg", "setting": "HCT-116 [15]", "value": 41.6, "unit": "%"},
      {"measurement": "IC50", "setting": "[16]", "value": 0.7, "unit": "nM"},
      {"measurement": "Activity", "setting": "Lung", "value": "Non-Toxic"},
      {"measurement": "IC50", "setting": "HCT-116 [17]", "value": 110, "unit": "nM"},
      {"measurement": "Activity", "setting": "HCT-116 [18]", "value": 796.2, "unit": "mm3"}
    ]}
  ]
}
